Source: patent publication EP0309422A2, “New amidino tricycle derivatives” (ISTITUTO DE ANGELI S.p.A., priority 1987, dated 1989)

molecular target: T1, muscarinic receptors of the cerebral cortex (Rattus norvegicus, UniProt P08482); assay: Antimuscarinic activity: in vitro binding, displacement of ³H-pirenzepine from cerebral cortex homogenate; design: species or system male CD-COOBBS rats; details: competition against 0.5 nM ³H-pirenzepine, 45 min at 30°C, KD from IC50 corrected for radioligand occupancy shift, read-out: Dissociation constants (KD) for ³H-pirenzepine binding
T1 construct: displacement of ³H-pirenzepine from cerebral cortex homogenate; from tissue; host or cells: rat cerebral cortex homogenate
T1 sequence (P08482 1-460): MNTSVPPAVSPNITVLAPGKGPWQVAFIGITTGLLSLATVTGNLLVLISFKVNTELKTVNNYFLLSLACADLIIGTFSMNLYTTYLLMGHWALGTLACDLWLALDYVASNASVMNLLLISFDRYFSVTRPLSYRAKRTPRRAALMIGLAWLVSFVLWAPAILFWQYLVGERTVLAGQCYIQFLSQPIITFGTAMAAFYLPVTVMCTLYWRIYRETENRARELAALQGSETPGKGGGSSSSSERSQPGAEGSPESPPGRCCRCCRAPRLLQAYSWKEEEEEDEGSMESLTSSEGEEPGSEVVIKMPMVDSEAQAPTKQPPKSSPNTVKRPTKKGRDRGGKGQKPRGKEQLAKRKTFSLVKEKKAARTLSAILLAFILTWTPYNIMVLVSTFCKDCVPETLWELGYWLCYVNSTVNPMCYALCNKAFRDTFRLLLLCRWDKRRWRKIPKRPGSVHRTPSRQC
Protocol: Antimuscarinic activity was examined by studying the displacement of ³H-pirenzepine from cerebral cortex homogenate according to the procedure reported below: The cerebral cortex donors were male CD-COOBBS rats, 220-250 g body weight. The homogenization process was carried out in a Potter-Evelhjem apparatus in the presence of Na⁺/Mg⁺⁺ HEPES buffer; pH 7.4 (100 mM NaCl, 10 mM MgCl₂, 20 mM HEPES), by filtering the suspension through two layers of cheesecloth.
Binding curves for the under study compounds were derived indirectly from competition experiments against 0.5 nM ³H-pirenzepine labelling the muscarinic receptors of the cerebral cortex. 1 ml of the homogenate was incubated for 45 min at 30°C in the presence of a marker ligand and different concentrations of the cold ligand, conditions under which equilibrium was reached as determined by appropriate association experiments. The incubation was terminated by centrifugation (12,000 rpm for 3 min) at room temperature using an Eppendorf microcentrifuge. The resultant pellet was washed twice with 1.5 ml saline to remove the free radioactivity and it was allowed to drain for some hours. The tips of the tubes containing the pellet were cut off and 200 µl of tissue solubilizer (Lumasolve, Lumac) were added and left to stand overnight. Radioactivity was then counted after addition of 4 ml of liquid scintillation mixture (Dimilume/Toluene 1:10 v:v, Packard)
Assays were carried out in triplicate or quadruplicate and the non-specific binding was defined as the radioactivity bound or entrapped in the pellet when the incubation medium contained 1 µM atropine sulphate. Non-specific binding avaraged less than 30%. KD values (dissociation constants) were obtained by non-linear regression analysis on the basis of a one binding site model with TOPFIT-pharmacokinetic programme package (G. HEINZEL, "Pharmacokinetics during drug development: data analysis and evaluation techniques" Eds. G. BOLZER and J.M. VAN ROSSUM; p. 207, G. Fisher, New York, 1982) after correction for the radioligand occupancy shift according to the equation: KD = IC₅₀/1 + *C/*KD, where *C and *KD represent the concentration and the dissociation constant of the radioligand used, respectively.

Point of comparison: `O=C1Nc2ccccc2N(C(=O)CCN2C=NCCC2)c2ccccc21` [Compound 81, 5,10-dihydro-5-[3-(1,4,5,6-tetrahydropirimidin-1-yl)-propionyl]-11H-dibenzo[b,e] [1,4]-diazepin-11-one], Kd 10 nM. Against it:
- N=C(N)N1CCN(CC(=O)N2c3ccccc3NC(=O)c3ccccc32)CC1 [Compound 3, 5,10-dihydro-5-[2-(4-guanyl-piperazin-1-yl)-acetyl]-11H-dibenzo [b,e] [1,4]-diazepin-11-one] — 1.7-fold lower, 6 nM
- N=C(N)N1C2CCC1CC(CC(=O)N1c3ccccc3NC(=O)c3cscc31)C2 (stereo not drawn) [Compound 19, 4,9-dihydro-4-[2-(8-guanyl-8-azabicyclo[3.2.1]-octan-3-yl)-acetyl]-10H-thieno[3,4-b] [1,5]-benzodiazepin-10-one] — 2.5-fold lower, 4 nM
- N=C(N)N1CCC(CC(=O)N2c3ccccc3NC(=O)c3ccccc32)CC1 [Compound 20, 5,10-dihydro-5-[2-(1-guanyl-piperidin-4-yl)-acetyl]-11H-dibenzo b,e [1,4]-diazepin-11-one] — 3.1-fold lower, 3.2 nM
- N=C(N)N1CCCC(CC(=O)N2c3ccccc3NC(=O)c3ccccc32)C1 (stereo not drawn) [Compound 26, 5,10-dihydro-5-[2-(1-guanyl-piperidin-3-yl)-acetyl]-11H-dibenzo [b,e] [1,4]-diazepin-11-one] — within 1.5-fold, 9 nM
- N=C(N)N1CCC(OC(=O)C2c3ccccc3NC(=O)c3ccccc32)CC1 (stereo not drawn) [Compound 31, 5,6-dihydro-11-[(1-guanyl-4-piperidinyl)-oxycarbonyl]-11H-dibenz[b,e]-azepin-6-one] — within 1.5-fold, 7.7 nM
- CC(=N)N1CCC(CC(=O)N2c3ccccc3NC(=O)c3ccccc32)CC1 [Compound 60, 5,10-dihydro-5-[2-(1-α-iminoethyl-piperidin-h-yl)-acetyl]-11H-dibenzo[b,e] [1,4]-diazepin-11-one] — 3.7-fold lower, 2.7 nM
- CC(=N)N1CCCC(CC(=O)N2c3ccccc3NC(=O)c3ccccc32)C1 (stereo not drawn) [Compound 61, 5,10-dihydro-5-[2-(1-α-iminoethyl - piperidin-3-yl)-acetyl]-11H-dibenzo[b,e] [1,4]-diazepin-11-one] — 2-fold lower, 5 nM
- CC(=N)N1CCCC(C(=O)N2c3ccccc3NC(=O)c3ccccc32)C1 (stereo not drawn) [Compound 62, 5,10-dihydro-5-[(1-α-iminoethyl-piperidin-3-yl)-carbonyl]-11H-dibenzo[b,e] [1,4]-diazepin-11-one] — within 1.5-fold, 8 nM
- O=C1Nc2ccccc2N(C(=O)CC2CCN(C3=NCCN3)CC2)c2ccccc21 [Compound 72] — 2.5-fold lower, 4 nM
- CNC(=N)C1CCCN(CC(=O)N2c3ccccc3NC(=O)c3ccccc32)C1 (stereo not drawn) [Compound 78, 5,10-dihydro-5-[2-(3-N-methylguanyl-piperidin-1-yl)-acetyl]-11H-dibenzo[b,e] [1,4]-diazepin-11-one] — 2-fold lower, 5 nM
- O=C1Nc2cccnc2N(C(=O)CCN2C=NCCC2)c2ccccc21 [Compound 82, 5,11-dihydro-11-[3-(1,4,5,6-tetrahydropirimidin-1-yl)-propionyl]-6H-pyrido[2,3-b] [1,5]-benzodiazepin-6-one] — the same, 10 nM
- O=C1Nc2ccccc2N(C(=O)CCN2C=NCCC2)c2cscc21 [Compound 83, 4,9-dihydro-4-[3-(1,4,5,6-tetrahydropirimidin-1-yl)-propionyl]-10H-thieno[3,4-b] [1,5]-benzodiazepin-10-one] — within 1.5-fold, 7 nM
- CC1=NCCCN1CCC(=O)N1c2ccccc2NC(=O)c2ccccc21 [Compound 84, 5,10-dihydro-5-[3-(2-methyl-1,4,5,6-tetrahydropirimidin-1-yl)-propionyl]-11H-dibenzo[b,e] [1,4]-diazepin-11-one] — 4-fold lower, 2.5 nM
- CC1=NCCCN1CCC(=O)N1c2ccccc2C(=O)Nc2cccnc21 [Compound 85, 5,11-dihydro-11-[3-(2-methyl-1,4,5,6-tetrahydropirimidin-1-yl)-propionyl]-6H-pyrido[2,3-b] [1,4]-benzodiazepin-6-one] — 2-fold lower, 5 nM
